Measurements reported in patent US20240293413A1, “COMPOUND AND METHOD FOR TREATING CHEMOTHERAPY-RELATED GASTROINTESTINAL SIDE EFFECTS” (ONQUALITY PHARMACEUTICALS CHINA LTD., priority 2021, published 2024).

What was measured:
Format in all cases: in vivo
[1] = tested on: diarrhea caused by a chemotherapeutic agent in Balb/c mice; assay: Examples 230-271 (Table 4): oral CDK inhibitor, relief of diarrhea caused by a chemotherapeutic agent; conditions: CDK inhibitor oral 150 mg/kg single, cycle 7 days
Description: Balb/c mice were fed for 1 week, and then divided into groups. The experiment was divided into a control group, a chemotherapeutic agent group, and a CDK inhibitor group, each of which comprised 10 mice, to perform the administration experiment, for which the administration dosage, mode, time and frequency were shown in Table 4. The control group: being intragastrically administered with the same solvent as that used in the CDK inhibitor group (the time was shown in Table 4), and then being injected/intragastrically administered with the same solvent as that used in the chemotherapeutic agent group (the administration mode was shown in Table 4): the chemotherapeutic agent group: being intragastrically administered with the same solvent as that used in the CDK inhibitor group (the time was shown in Table 4), and then being injected/intragastrically administered with the chemotherapeutic agent (the type, administration mode and dosage were shown in Table 4): the CDK inhibitor group: being intragastrically administered with the CDK inhibitor (the time was shown in Table 4), and then being administered with the chemotherapeutic agent (the mode and dosage were shown in Table 4).
(§1) The diarrhea grading of mice was observed and recorded every day.

[2] = tested on: diarrhea caused by a chemotherapeutic agent in Balb/c mice; assay: Examples 343-381 (Table 6): oral versus intravenous CDK inhibitor, relief of diarrhea caused by a chemotherapeutic agent;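 further: percent of treated mice whose diarrhea grade fell below chemotherapy-group average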
Description: Balb/c mice were fed for 1 week, and then divided into groups. The experiment was divided into a control group, a chemotherapeutic agent group, and an oral administration group of a CDK inhibitor, and an intravenous injection group of a CDK inhibitor, each of which comprised 10 mice, to perform the administration experiment, for which the administration dosage, mode, time and frequency were shown in Table 6. The control group: being injected/intragastrically administered with the same solvent as that used in the CDK inhibitor group (the time was shown in Table 6), and then being injected/intragastrically administered with the same solvent as that used in the chemotherapeutic agent group (the administration mode was shown in Table 6): the chemotherapeutic agent group: being injected/intragastrically administered with the same solvent as that used in the CDK inhibitor group (the time was shown in Table 6), and then being injected/intragastrically administered with the chemotherapeutic agent (the type, administration mode and dosage were shown in Table 6): the oral administration group of the CDK inhibitor: being intragastrically administered with the CDK inhibitor (the time was shown in Table 6), and then being administered with the chemotherapeutic agent (the mode and dosage were shown in Table 6): the intravenous injection group of the CDK inhibitor: being injected with the CDK inhibitor through tail vein (the time was shown in Table 6), and then being administered with the chemotherapeutic agent (the mode and dosage were shown in Table 6).
as §1

[3] = tested on: constipation caused by a chemotherapeutic agent in Balb/c mice; assay: Examples 406-443 (Table 8): various administration modes of the CDK inhibitor, relief of constipation caused by a chemotherapeutic agent; conditions: for Relative remission rate of oral administration: CDK inhibitor oral 150 mg/kg single;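 on all read-outs here: percent of treated mice relieved versus chemotherapy group by feces reduction rate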
Description: Balb/c mice were fed for 1 week, and then divided into groups. The experiment was divided into a control group, a chemotherapeutic agent group, CDK inhibitor groups (including an oral administration group of a CDK inhibitor, an intravenous injection group of a CDK inhibitor, an intraperitoneal injection group of a CDK inhibitor, an intramuscular injection group of a CDK inhibitor, a local administration group of a CDK inhibitor), each of which comprised 10 mice, to perform the administration experiment, for which the administration dosage, mode, time and frequency were shown in Table 8. The control group: being administered with the same solvent as that used in the CDK inhibitor group (the time and mode were shown in Table 8), and then being injected/intragastrically administered with the same solvent as that used in the chemotherapeutic agent group (the administration mode was shown in Table 8): the chemotherapeutic agent group: being administered with the same solvent as that used in the CDK inhibitor group (the time and mode were shown in Table 8), and then being injected/intragastrically administered with the chemotherapeutic agent (the type, administration mode and dosage were shown in Table 8): the oral administration group of the CDK inhibitor: being intragastrically administered with the CDK inhibitor (the time was shown in Table 8), and then being administered with the chemotherapeutic agent (the mode and dosage were shown in Table 8): the intravenous injection group of the CDK inhibitor: being injected with the CDK inhibitor through tail vein (the time was shown in Table 8), and then being administered with the chemotherapeutic agent (the mode and dosage were shown in Table 8): the intraperitoneal injection group of the CDK inhibitor: being intraperitoneally injected with the CDK inhibitor (the time was shown in Table 8), and then being administered with the chemotherapeutic agent (the mode and dosage were shown in Table 8): the intramuscular injection group of the CDK inhibitor: being intramuscularly injected with the CDK inhibitor (the time was shown in Table 8), and then being administered with the chemotherapeutic agent (the mode and dosage were shown in Table 8); and the local administration group of the CDK inhibitor: the hair on the abdomen of mice was shaved (about 2 cm*2 cm), being applied with the CDK inhibitor (the time was shown in Table 8), and then being administered with the chemotherapeutic agent (the mode and dosage were shown in Table 8).
Feces reduction rate (%)=(the control group−the chemotherapeutic agent group or the CDK inhibitor group)/the control group*100%
The feces amount of mice within 3 hours was observed and recorded every day.

CCN1CCN(Cc2ccc(Nc3ncc(F)c(-c4cc(F)c5nc(C)n(C(C)C)c5c4)n3)nc2)CC1 [Abemaciclib]
Relative remission rate ([1]; Example 253, Methotrexate (MTX) intramuscular injection 300 mg/kg single, 8 h before): 70%
Relative remission rate ([1]; Example 263, Vinorelbine (NVB) intravenous injection 10 mg/kg single, 0.5 h before): 60%
Relative remission rate ([1]; Example 264, Vinorelbine (NVB) intravenous injection 10 mg/kg single, 4 h before): 80%
Relative remission rate ([1]; Example 265, Vinorelbine (NVB) intravenous injection 10 mg/kg single, 8 h before): 80%
Relative remission rate ([1]; Example 266, Vinorelbine (NVB) intravenous injection 10 mg/kg single, 12 h before): 60%
Relative remission rate ([1]; Example 267, Vinorelbine (NVB) intravenous injection 10 mg/kg single, 24 h before): 50%
Relative remission rate ([1]; Example 268, Vinorelbine (NVB) intravenous injection 10 mg/kg single, 48 h before): 0%
Relative remission rate ([2]; Example 364, Carboplatin (CBP) intramuscular injection 150 mg/kg single, CDK inhibitor intravenous injection 150 mg/kg single, 8 h before, cycle 10 days): 20%
Relative remission rate ([2]; Example 364, Carboplatin (CBP) intramuscular injection 150 mg/kg single, CDK inhibitor oral 150 mg/kg single, 8 h before, cycle 10 days): 50%
Relative remission rate ([2]; Example 371, Gemcitabine (GEM) intraperitoneal injection 120 mg/kg single, CDK inhibitor intravenous injection 150 mg/kg single, 0.5 h before, cycle 8 days): 10%
Relative remission rate ([2]; Example 371, Gemcitabine (GEM) intraperitoneal injection 120 mg/kg single, CDK inhibitor oral 150 mg/kg single, 0.5 h before, cycle 8 days): 30%
Relative remission rate ([2]; Example 372, Gemcitabine (GEM) intraperitoneal injection 120 mg/kg single, CDK inhibitor intravenous injection 150 mg/kg single, 4 h before, cycle 8 days): 10%
Relative remission rate ([2]; Example 372, Gemcitabine (GEM) intraperitoneal injection 120 mg/kg single, CDK inhibitor oral 150 mg/kg single, 4 h before, cycle 8 days): 30%
Relative remission rate ([2]; Example 373, Gemcitabine (GEM) intraperitoneal injection 120 mg/kg single, CDK inhibitor intravenous injection 150 mg/kg single, 8 h before, cycle 8 days): 20%
Relative remission rate ([2]; Example 373, Gemcitabine (GEM) intraperitoneal injection 120 mg/kg single, CDK inhibitor oral 150 mg/kg single, 8 h before, cycle 8 days): 50%
Relative remission rate ([2]; Example 374, Gemcitabine (GEM) intraperitoneal injection 120 mg/kg single, CDK inhibitor intravenous injection 150 mg/kg single, 12 h before, cycle 8 days): 20%
Relative remission rate ([2]; Example 374, Gemcitabine (GEM) intraperitoneal injection 120 mg/kg single, CDK inhibitor oral 150 mg/kg single, 12 h before, cycle 8 days): 50%
Relative remission rate ([2]; Example 375, Gemcitabine (GEM) intraperitoneal injection 120 mg/kg single, CDK inhibitor intravenous injection 150 mg/kg single, 24 h before, cycle 8 days): 10%
Relative remission rate ([2]; Example 375, Gemcitabine (GEM) intraperitoneal injection 120 mg/kg single, CDK inhibitor oral 150 mg/kg single, 24 h before, cycle 8 days): 40%
Relative remission rate of other administration mode ([3]; Example 429, Carboplatin intravenous injection 120 mg/kg single, CDK inhibitor intramuscular injection 150 mg/kg single, 8 h before, cycle 10 days): 20%
Relative remission rate of oral administration ([3]; Example 429, Carboplatin intravenous injection 120 mg/kg single, 8 h before, cycle 10 days): 60%
Relative remission rate of other administration mode ([3]; Example 430, Gemcitabine intraperitoneal injection 120 mg/kg single, CDK inhibitor intraperitoneal injection 150 mg/kg single, 0.5 h before, cycle 8 days): 10%
Relative remission rate of oral administration ([3]; Example 430, Gemcitabine intraperitoneal injection 120 mg/kg single, 0.5 h before, cycle 8 days): 40%
Relative remission rate of other administration mode ([3]; Example 431, Gemcitabine intraperitoneal injection 120 mg/kg single, CDK inhibitor intraperitoneal injection 150 mg/kg single, 4 h before, cycle 8 days): 10%
Relative remission rate of oral administration ([3]; Example 431, Gemcitabine intraperitoneal injection 120 mg/kg single, 4 h before, cycle 8 days): 40%
Relative remission rate of other administration mode ([3]; Example 432, Gemcitabine intraperitoneal injection 120 mg/kg single, CDK inhibitor intraperitoneal injection 150 mg/kg single, 8 h before, cycle 8 days): 10%
Relative remission rate of oral administration ([3]; Example 432, Gemcitabine intraperitoneal injection 120 mg/kg single, 8 h before, cycle 8 days): 40%
Relative remission rate of other administration mode ([3]; Example 433, Gemcitabine intraperitoneal injection 120 mg/kg single, CDK inhibitor intraperitoneal injection 150 mg/kg single, 12 h before, cycle 8 days): 20%
Relative remission rate of oral administration ([3]; Example 433, Gemcitabine intraperitoneal injection 120 mg/kg single, 12 h before, cycle 8 days): 60%
Relative remission rate of other administration mode ([3]; Example 434, Gemcitabine intraperitoneal injection 120 mg/kg single, CDK inhibitor intraperitoneal injection 150 mg/kg single, 24 h before, cycle 8 days): 20%
Relative remission rate of oral administration ([3]; Example 434, Gemcitabine intraperitoneal injection 120 mg/kg single, 24 h before, cycle 8 days): 60%
